We go through one molecule from ChEMBL document CHEMBL3393057, “Synthesis and transmembrane anion/cation symport activity of a rigid bis(choloyl) conjugate functionalized with guanidino groups” (Bioorg Med Chem Lett, 2015).

A short description of series [1]: Ionophoric activity across egg yolk L-alpha-phosphatidylcholine-based liposomal membrane vesicles (unknown origin) assessed as release of chloride ion at 5 mol% by electrode technique in presence of 500 mM NaCl. Conditions: artificial membrane; call rule not given here. In kind it is ADME.
Series [2] is described as follows: Ionophoric activity across egg yolk L-alpha-phosphatidylcholine-based liposomal membrane vesicles (unknown origin) assessed as induction of pH discharge at internal pH 7 and external aqueous phase pH 8 at 3 mol% by pyranine dye-based method in presence of NaCl. Conditions: artificial membrane.
A short description of series [3]: Ionophoric activity across egg yolk L-alpha-phosphatidylcholine-based liposomal membrane vesicles (unknown origin) assessed as release of chloride ion at 5 mol% by electrode technique in presence of 500 mM LiCl. In kind it is ADME. Particulars: artificial membrane.
Series [4] can be described thus: Ionophoric activity across egg yolk L-alpha-phosphatidylcholine-based liposomal membrane vesicles (unknown origin) assessed as release of chloride ion at 5 mol% by electrode technique in presence of 500 mM RbCl. In kind it is ADME. Conditions: artificial membrane.
Series [5] is described as follows: Ionophoric activity across egg yolk L-alpha-phosphatidylcholine-based liposomal membrane vesicles (unknown origin) assessed as induction of pH discharge at internal pH 7 and external aqueous phase pH 8 at 3 mol% by pyranine dye-based method in presence of NaI. Conditions: artificial membrane.
Series [6] is described as follows: Ionophoric activity across egg yolk L-alpha-phosphatidylcholine-based liposomal membrane vesicles (unknown origin) assessed as induction of pH discharge at internal pH 7 and external aqueous phase pH 8 at 3 mol% by pyranine dye-based method in presence of NaBr. Particulars: artificial membrane.
A short description of series [7]: Ionophoric activity across egg yolk L-alpha-phosphatidylcholine-based liposomal membrane vesicles (unknown origin) assessed as release of chloride ion at 5 mol% by electrode technique in presence of 500 mM CsCl. In kind it is ADME. Particulars: artificial membrane.
Series [8] is described as follows: Ionophoric activity across egg yolk L-alpha-phosphatidylcholine-based liposomal membrane vesicles (unknown origin) assessed as induction of pH discharge at internal pH 7 and external aqueous phase pH 8 at 3 mol% by pyranine dye-based method in presence of NaNO3. Particulars: artificial membrane.
Series [9] in a line: Ionophoric activity across egg yolk L-alpha-phosphatidylcholine-based liposomal membrane vesicles (unknown origin) assessed as release of chloride ion at 5 mol% by electrode technique in presence of 500 mM KCl. In kind it is ADME. Particulars: artificial membrane.
A short description of series [10]: Ionophoric activity across egg yolk L-alpha-phosphatidylcholine-based liposomal membrane vesicles (unknown origin) assessed as release of chloride ion after 300 seconds by electrode technique in presence of sodium sulfate in external solution. In kind it is ADME. Conditions: artificial membrane, 5 min.
Series [11] in a line: Ionophoric activity across egg yolk L-alpha-phosphatidylcholine-based liposomal membrane vesicles (unknown origin) assessed as release of chloride ion after 300 seconds by electrode technique in presence of sodium nitrate in external solution. In kind it is ADME. Particulars: artificial membrane, 5 min.

As to `C[C@H](CCC(=O)NC(CCCNC(=N)N)C(=O)NCc1ccc(CNC(=O)C(CCCNC(=N)N)NC(=O)CC[C@@H](C)[C@@H]2CC[C@@H]3[C@@H]4[C@@H](C[C@@H](O)[C@]32C)[C@]2(C)CC[C@H](O)C[C@@H]2C[C@@H]4O)cc1)[C@H]1CC[C@H]2[C@@H]3[C@H](O)C[C@@H]4C[C@H](O)CC[C@]4(C)[C@H]3C[C@H](O)[C@]12C` (stereo partly specified), the outcome in [1], in [2], in [3], in series [4], in [5] and in series [6] was Active. In addition, the Activity entry is listed as “Active” in [7]; “Active” in series [8]; “Active” in [9]; “Active” in series [10]; “Dose-dependent effect” in [11].
